# From patent US7189702B2, “Glucopyranosyloxypyrazole derivatives and medicinal use thereof” (Kissei Pharmaceutical Co., Ltd., priority 2001, dated 2007)
# Biological target: T1, human SGLT2 (Homo sapiens, UniProt P31639, I433V)
# T1 construct: expressed in transfected cells; host or cells: COS-7 cells (RIKEN CELL BANK RCB0539), transient, electroporation of KL29
# T1 sequence (P31639 1-672 I433V): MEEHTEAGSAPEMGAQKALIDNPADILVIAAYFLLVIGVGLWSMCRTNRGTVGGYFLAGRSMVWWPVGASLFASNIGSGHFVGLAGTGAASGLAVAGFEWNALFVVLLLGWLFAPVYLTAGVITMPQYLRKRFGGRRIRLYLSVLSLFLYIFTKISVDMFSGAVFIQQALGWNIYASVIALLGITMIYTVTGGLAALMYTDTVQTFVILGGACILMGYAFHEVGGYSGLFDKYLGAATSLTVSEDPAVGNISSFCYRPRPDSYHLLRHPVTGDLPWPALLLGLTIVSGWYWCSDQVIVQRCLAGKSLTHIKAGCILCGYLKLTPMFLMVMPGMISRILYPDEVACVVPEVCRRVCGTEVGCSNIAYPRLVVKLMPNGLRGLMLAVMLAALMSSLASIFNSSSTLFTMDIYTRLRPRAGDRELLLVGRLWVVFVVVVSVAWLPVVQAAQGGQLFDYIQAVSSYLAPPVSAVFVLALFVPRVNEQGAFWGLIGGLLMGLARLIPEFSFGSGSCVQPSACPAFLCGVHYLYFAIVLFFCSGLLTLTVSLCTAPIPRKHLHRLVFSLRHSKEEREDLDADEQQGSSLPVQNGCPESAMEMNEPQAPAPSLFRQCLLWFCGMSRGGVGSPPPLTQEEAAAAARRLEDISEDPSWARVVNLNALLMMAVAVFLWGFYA
# Test: Assay for inhibitory effect on human SGLT2 activity (uptake of methyl-α-D-glucopyranoside)
# Type: cell-based
# Conditions: inhibition of methyl-α-D-(U-14C)glucopyranoside uptake, COS-7 cells expressing transiently human SGLT2, 37° C., 2 hours
# Method: Assay for Inhibitory Effect on Human SGLT2 Activity
# 1) Construction of the Plasmid Vector Expressing Human SGLT2
# Preparation of the cDNA library for PCR amplification was performed by reverse transcription of a total RNA deprived from human kidney (Ori gene) with oligo dT as the primer, using SUPERSCRIPT Preamplification System (Gibco-BRL: LIFE TECHNOLOGIES). The DNA fragment coding for human SGLT2 was amplified by the PCR reaction, in which the human kidney cDNA library described above was used as the template and the following oligo nucleotides 0702F and 0712R, presented as Sequence Numbers 1 and 2 respectively, were used as the primers. The amplified DNA fragment was ligated into pCR-Blunt (Invitrogen), a vector for cloning, according to standard method of the kit. The Escherichia coli HB101 was transformed according to usual method and then selection of the transformants was performed on the LB agar medium containing 50 μg/mL of kanamycin. After plasmid DNA was extracted and purified from the one of the transformants, amplifying of the DNA fragment coding for human SGLT2 was performed by the PCR reaction, in which the following oligo nucleotides 0714F and 0715R, presented as Sequence Numbers 3 and 4 respectively, were used as the primers. The amplified DNA fragment was digested with restriction enzymes, Xho I and Hind III, and then purified with Wizard Purification System (Promega). This purified DNA fragment was inserted at the corresponding restriction sites of pcDNA3.1 (−) Myc/His-B (Invitrogen), a vector for expressing of fusion protein. The Escherichia coli HB101 was transformed according to usual method and then selection of the transformant was performed on the LB agar medium containing 100 μg/mL of ampicillin. After plasmid DNA was extracted and purified from this transformant, the base sequence of the DNA fragment inserted at the multi-cloning sites of the vector pcDNA3.1 (−) Myc/His-B was analyzed. […] Sequentially, a clone in which valine is substituted for isoleucine-433 was obtained. This plasmid vector expressing human SGLT2 in which the peptide presented as Sequence Number 5 is fused to the carboxyl terminal alanine residue was designated KL29.
# 2) Preparation of the Cells Expressing Transiently Human SGLT2
# KL29, the plasmid coding human SGLT2, was transfected into COS-7 cells (RIKEN CELL BANK RCB0539) by electroporation. Electroporation was performed with GENE PULSER II (Bio-Rad Laboratories) under the condition: 0.290 kV, 975 μF, 2×10^6 cells of COS-7 cell and 20 μg of KL29 in 500 μL of OPTI-MEM I medium (Gibco-BRL: LIFE TECHNOLOGIES) in the 0.4 cm type cuvette. After the gene transfer, the cells were harvested by centrifugation and resuspended with OPTI-MEM I medium (1 mL/cuvette). To each well in 96-wells plate, 125 μL of this cell suspension was added. After overnight culture at 37° C. under 5% CO2, 125 μL of DMEM medium which is containing 10% of fetal bovine serum (Sanko Jyunyaku), 100 units/mL sodium penicillin G (Gibco-BRL: LIFE TECHNOLOGIES), and 100 μg/mL streptomycin sulfate (Gibco-BRL: LIFE TECHNOLOGIES) was added to each well. These cells were cultured until the next day and then they were used for the measurement of the inhibitory activity against the uptake of methyl-α-D-glucopyranoside.
# 3) Measurement of the Inhibitory Activity Against the Uptake of methyl-α-D-glucopyranoside
# After a test compound was dissolved in dimethyl sulfoxide and diluted with the uptake buffer (a pH 7.4 buffer containing 140 mM sodium chloride, 2 mM potassium chloride, 1 mM calcium chloride, 1 mM magnesium chloride, 5 mM methyl-α-D-glucopyranoside, 10 mM 2-[4-(2-hydroxyethyl)-1-piperazinyl]ethane sulfonic acid and 5 mM tris(hydroxymethyl)aminomethane), each diluent was used as test sample for measurement of the inhibitory activity. […]
row,Compound,IC50
1,"Cc1[nH]nc(O[C@@H]2O[C@H](CO)[C@@H](O)[C@H](O)[C@H]2O)c1Cc1ccc(C=C2CC2)cc1 [Example 20, 3-(β-D-Glucopyranosyloxy)-5-methyl-4-{[4-(cyclopropylidenemethyl)phenyl]methyl}-1H-pyrazole]",0.015 µM
2,"Cc1[nH]nc(O[C@@H]2O[C@H](CO)[C@@H](O)[C@H](O)[C@H]2O)c1Cc1ccc(C2CC2)cc1 [Example 21, 3-(β-D-Glucopyranosyloxy)-5-methyl-4-[(4-cyclopropylphenyl)methyl]-1H-pyrazole]",0.018 µM
3,"Cc1[nH]nc(O[C@@H]2O[C@H](CO)[C@@H](O)[C@H](O)[C@H]2O)c1Cc1ccc(-c2nccs2)cc1 [Example 23, 3-(β-D-Glucopyranosyloxy)-5-methyl-4-{[4-(thiazol-2-yl)phenyl]methyl}-1H-pyrazole]",0.046 µM
4,"OCCCc1ccc(Cc2c(O[C@@H]3O[C@H](CO)[C@@H](O)[C@H](O)[C@H]3O)n[nH]c2C(F)(F)F)cc1 [Example 24, 3-(β-D-Glucopyranosyloxy)-4-{[4-(3-hydroxypropyl)phenyl]methyl}-5-trifluoromethyl-1H-pyrazole]",0.057 µM
5,"Cc1c(Cc2ccc(C3CC3)cc2)c(O[C@@H]2O[C@H](CO)[C@@H](O)[C@H](O)[C@H]2O)nn1CC1CC1 [Example 32, 3-(β-D-Glucopyranosyloxy)-5-methyl-1-(cyclopropylmethyl)-4-[(4-cyclopropylphenyl)methyl]-1H-pyrazole]",0.026 µM
6,"CSc1ccc(Cc2c(O[C@@H]3O[C@H](CO)[C@@H](O)[C@H](O)[C@H]3O)nn(CC3CC3)c2C)cc1 [Example 38, 1-(Cyclopropylmethyl)-3-(β-D-glucopyranosyloxy)-5-methyl-4-[(4-methylthiophenyl)methyl]-1H-pyrazole]",0.045 µM
7,"CSc1ccc(Cc2c(C(F)(F)F)[nH][nH]c2=O)cc1 [WAY-123783, reference compound]",> 100 µM

# Continued by falling IC50, values first:
row,IC50,Compound
1,0.21 µM,"Cc1[nH]nc(O[C@@H]2O[C@H](CO)[C@@H](O)[C@H](O)[C@H]2O)c1Cc1ccc(OC2CCC2)cc1 [Example 27, 4-{[4-(Cyclobutyloxy)phenyl]methyl}-3-(β-D-glucopyranosyloxy)-5-methyl-1H-pyrazole]"
2,0.15 µM,"Cc1[nH]nc(O[C@@H]2O[C@H](CO)[C@@H](O)[C@H](O)[C@H]2O)c1Cc1ccc(-c2ccc(F)cc2)cc1 [Example 26, 4-{[4-(4-Fluorophenyl)phenyl]methyl}-3-(β-D-glucopyranosyloxy)-5-methyl-1H-pyrazole]"
3,0.065 µM,"CC(C)=Cc1ccc(Cc2c(O[C@@H]3O[C@H](CO)[C@@H](O)[C@H](O)[C@H]3O)n[nH]c2C)cc1 [Example 25, 3-(β-D-Glucopyranosyloxy)-5-methyl-4-{[4-(2-methylprop-1-en-1-yl)phenyl]methyl}-1H-pyrazole]"
4,0.047 µM,"CCc1ccc(Cc2c(O[C@@H]3O[C@H](CO)[C@@H](O)[C@H](O)[C@H]3O)nn(CCCO)c2C)cc1 [Example 39, 4-[(4-Ethylphenyl)methyl]-3-(β-D-glucopyranosyloxy)-1-(3-hydroxypropyl)-5-methyl-1H-pyrazole]"
5,0.041 µM,"CC/C=C/c1ccc(Cc2c(O[C@@H]3O[C@H](CO)[C@@H](O)[C@H](O)[C@H]3O)n[nH]c2C)cc1 [Example 22, (E)-4-{[4-(But-1-en-1-yl)phenyl]methyl}-3-(β-D-glucopyranosyloxy)-5-methyl-1H-pyrazole]"

# Same assay, conditions: statement in words
row,Compound,inhibitory activity in human SGLT2
1,"CSc1ccc(Cc2c(C(F)(F)F)[nH][nH]c2=O)cc1 [WAY-123783, reference compound]",extremely weak

# System: not given
# Test: not given
# Conditions: normal mice; J. Med. Chem., Vol. 39, pp. 3920–3928 (1996); cited from earlier work
row,Compound,amount of excreted glucose
1,"CSc1ccc(Cc2c(C(F)(F)F)[nH][nH]c2=O)cc1 [WAY-123783, reference compound]",increased
